{
  "source": "patent US20240287614A1",
  "about": "“RECIPROCAL MICRORNA-MRNA PAIRINGS AS BIOMARKERS AND THERAPEUTIC TARGETS IN CANCER” (UNIVERSITY OF MARYLAND, EASTERN SHORE, priority 2023, published 2024)",
  "key": {"[1]": {"test_system": "cancer cell lines (HT-29, SW620, MDA MB 231, MCF-7, A549, and H1299)", "test": "TUNEL assay", "assay_type": "cell-based, human", "settings": "mimic vs NS transfected cancer cells; 48 h", "description": "TUNEL assay was carried out according to the manufacturer's protocol (Click-iT™ Plus In-situ Apoptosis Detection with Alexa Fluor Dyes, Thermo Fisher Scientific). Precisely, 4×10^4 cells (HT-29, SW620, MDA MB 231, MCF-7, A549, and H1299) were seeded on coverslips and allowed to adhere for 24 h in 5% CO2 incubator at 37° C. These cells were fixed in 4% paraformaldehyde in 1×PBS after exposure of miR-99b-5p mimic or negative control mimic for 48 h, then washed with PBS three times followed by the incubation with 0.25% Triton X-100 in 1×PBS and ultimately the cells were incubated with differential steps of TUNEL reaction mixture as per the manufacturer's protocol. Lastly, the processed cells were counterstained with DAPI for 5 min, at room temperature in the dark. All labeled and/or prepared cells were mounted on glass slides and were visualized by Olympus BX3 fluorescence microscope (Olympus). Cell images were captured from 3-4 random areas at 10× magnification by using CellSens V1.18 software (Olympus)."}, "[2]": {"test_system": "prostate cancer (LNCaP and PC-3) and prostate cancer (RC77 T/E and MDA PCa 2b) cell lines", "test": "Caspase 3/7 activity-based apoptosis assay, prostate cancer cell lines", "set-up": "species or system human", "description": "[…] RC77 T/E, a primary prostate cancer cell line derived from a patient, was kindly provided by Dr. Johng Rhim at Center for Prostate Disease Research (CPDR) in Rockville, MD. LNCaP and PC-3 were served as prostate cancer cell line models, and RC77 T/E and MDA PCa 2b were served as prostate cancer cell models in the study. The cells were cultured in specific cell culture media, LNCaP was cultured in RPMI with 10% fetal bovine serum (FBS), PC-3 was cultured in DMEM with 10% FBS, MDA PCa 2b were cultured in BRFF-HPC1 with 20% FBS and RC77 T/E was cultured in Keratinocyte SFM with Human Recombinant Epidermal Growth Factor (EGF 1-53) and Bovine Pituitary Extract (BPE). Cells were maintained at 37° C. in a 5% CO2 incubator. LNCaP, PC-3 and MDA PCa 2b cells were seeded at density 3×10^4 cells/well in 6-well plates. RC77 T/E cells were seeded at density 5×10^4 cells/well in 6-well plates. The cells were allowed to grow for 24 h and then were either transfected with miR-34a-5p mimic, miR-99b-5p mimic, or miR-96-5p antagomir using DharmaFECT4 transfection reagent (Dharmacon), according to the manufacturer's protocol. After 24 h, the cells were replaced with fresh media then incubated for 24 h. miR-34a-5p mimic, miR-99b-5p mimic, miR-96-5p antagomir, and nonsense miRNA mimic and antagomir controls were purchased from Ambion. Nonsense/scrambled miRNA mimic and antagomir were used as negative controls.\nFor the measurement of apoptosis initiation by transfection of miRNA mimic or antagomir in prostate cancer cells, the transfected cells 5000 cells/well were seeded onto 96-well cell culture plates (Corning) and then incubated overnight. The miRNA mimic/antagomir transfected cells were then treated with vehicle or […] of Docetaxel. 24 h after the vehicle or drug treatment, the apoptosis assays were performed using Apo-ONE Caspase-3/7 Assay Kit (Promega Corporation) according to the protocol described by the manufacturer. 100 μL of homogeneous Caspase-3/7 reagent was added to the sample plate and incubated at room temperature for 1 h. Fluorescence was detected for measuring the apoptosis state (Caspase 3/7 activity) using Biotek Synergy HT Microplate Reader (BioTek) at wavelengths of 499 nm and 521 nm for excitation and emission, respectively."}},
  "data": [
    {"substance": "miR-99b-5p mimic: miRNA mimic of miR-99b-5p (SEQ ID NO: 2, CACCCGUAGAACCGACCUUGCG), purchased from Ambion (listed as RNA, chemistry not given here; listed as Homo sapiens)", "values": [
      {"measurement": "DNA breakages (TUNEL red fluorescent signals in nuclei)", "setting": "[1]", "value": "enhanced"},
      {"measurement": "docetaxel-induced cytotoxicity (caspase 3/7 activity), combination with docetaxel", "setting": "[2]; LNCaP cells, 11 mM of Docetaxel, 24 h", "value": "further enhanced"},
      {"measurement": "apoptosis (caspase 3/7 activity), transfection in the presence of docetaxel", "setting": "[2]; RC77 T/E and MDA PCa 2b, 11 mM of Docetaxel, 24 h", "value": "significantly induced apoptosis"},
      {"measurement": "cell apoptosis (caspase 3/7 activity) compared with NS transfected cells", "setting": "[2]; absence of docetaxel (vehicle control), LNCaP, PC-3, RC77 T/E, MDA PCa 2b", "value": "overall generalized or significant increase"}
    ]}
  ]
}
